The values that follow come from patent US5157032A, “Mixed ligand complexes and uses thereof as binding agents and probes to DNA” (The Trustees of Columbia University In The City of New York, priority 1990, dated 1992).

Data set [1] concerns calf thymus DNA. The data set can be described thus: Absorption titration with calf thymus DNA (half-reciprocal, hypochromism). To be noted: in words. The data set is classed as binding. The source says: In plots of [DNA]/(εA -εF) versus [DNA], Kb is given by the ratio of the slope to intercept.
Data set [2] concerns calf thymus DNA. The data set can be described thus: Equilibrium dialysis of racemic complexes against calf thymus DNA (Scatchard, dialysate CD). The data set is classed as binding. On the set-up: Km × 10) equilibrium dialysis (intrinsic binding constant Kb): scale not given here. To be noted: for Site size: fit to McGhee and von Hippel equation; for binding affinity for DNA: comparative. The protocol:
Equilibrium Dialysis: Equlibrium dialysis of the reacemic metal complexes was perforemd against calf-thymus DNA using procedures described previously. (74) The buffer used was 5 mM Tris, 50 mM NaCl at pH 7.5. Samples were agitated on a shaker bath during equilibration which occurred after three to five days, as determined by control samples containing no DNA. After equilibration, volumes of liquid inside and outside the dialysis bags were determined (approximately 1 and 3 mls, respectively) and circular dichroism of the dialysate was meaxured on a Jasco J-40 spectropolarimeter. Final ruthenium concentration inside and outside the bags were measured by visible absorbance. Data anaylsis was performed on a VAX-780 using non-linear least squares analysis.
Equilibrium Dialysis: Equilibrium binding constants for the metal complexes with DNA may be determined classically by equilibrium dialysis. Calf thymus DNA was dialyzed against the series of mixed ligand complexes using a broad range of ruthenium concentrations. […] The results have been plotted according to Scatchard (88), where r is the ratio of bound metal to DNA-phosphate concentration, and cf is the concentration of free metal complex. The data were fit by non-linear least squares analysis to the McGhee and von Hippel equation (8945) governing random non-cooperative binding to a lattice,
where r is the ratio of bound concentration of ruthenium to the concentration of DNA-phosphate, cf is the concentration of ruthenium free in soltuion, Kb the intrinsic binding constant, and the integer /, which measures the degree of anti-cooperativeity, is the size of a binding site in base pairs. The curves shown reflect the best fit after variation of two parameters: the intrinsic binding constant, Kb, and binding stie size, /. For those complexes were cooperatively was observed, the equation (89) incorporating a cooperativity parameter was used.
Equilibrium dialysis experiments additionally offer the opportunity to examine any enantiomeric selectivities associated with binding. After dialysis of the DNA against the racemic mixture, optical activity observed in the dialysate refelects an enrichment in the dialysate in the less favored enantiomer. For most of the complexes, optical activity was found in the dialysate. Values for the extent of enantiomeric selectivity could not be quanitated in the absence of determinations of DE and assignments of absolute configuration. Assuming that the signs of the circular chroism in the ultraviolet ligand bands are the same for the these ligands as that for the parent phenanthroline complex, (90) we have assigned the absolute configuration of these complexes by comparison to spectra for enantiomers of Ru(phen)3^2+ and have compared levels of enantioselectivity qualitatively through measurements of circular dichroic intensity per rutheium bound. Based upon these assumptions, we find enantionmeric selectivities for the polyridyl complexes to reflect an enrichment in the isomer in the dialysate and the preferential binding of the isomer to the right-handed DNA. This observation is consistent with the preferential intercalation of isomers found earlier for Ru(phen)3^2+ in right-handed B-DNA. (63) We may also compare relative enantioselectivities for different ancillary ligands. […] The same comparison may be seen qualitatively between Ru(phen)2 DIP^2+ and Ru(bpy)2 DIP^2+.
Background: In equilibrium dialysis only unbound substance equilibrates across the membrane.

For data set [3], the system named is HIV. The data set is classed as cell-based. The protocol: The procedure used For testing agents active against (HIV) is designed to detect agents acting at any stage of the virus reproductive cycle. The assay basically involves the killing of T4 lympnocytes by HIV. Small amounts of HIV are added to cells, and at least two complete cycles of virus reproduction are necessary to obtain the required cell killing. […] The system is automated in several ceatures to accomodate large numbers of candidate agents, and is generally designed to detect anti-HIV activity. […]. Also, while every attempt has been made to reduce variability, precise values for EC50, IC50, and Therapeautic Index are not possible. All tests are compared with a positive (AZT-treated) control done at the same time under identical conditions.
(§1) 1. […] lymphocytes (CEM cell line) are exposed to HIV at a virus to cell ratio approximately 0.05, and plated along with noninfected control cells in 96-well microtiter plates.
(§2) 2. Candidate agent is dissolved in dimethyl sulfoxide (unless otherwose instructed), then diluted 1:200 in cell culture medium. Further dilutions (half-log10) are prepared before adding to an equal volume of medium containing either infected or noninfected cells.
(§3) 3. Cultures are incubated at 37° in a 5% carbon dioxide atmosphere for 6 or 7 days.
(§4) 4. The tetrazolium salt, XTT, is added to all wells, and cultures are incubated to allow formazan color development by viable cells.
(§5) 5. Individual wells are analyzed spectrophotometrically to quantitate formazan production, and in addition are viewed microscopically for detection of viable cells and confirmation of protective activity.
(§6) 6. Drug-treated virus-infected cells are compared with drug-treated noninfected cells and with other appropirate controls (untreated infected and untreated noninfected cells, drug-containing wells without cells, etc.) on the same plate.
7. Data are reviewed in comparison with other tests done at the same time, and a determinatin about activity is made.
Several complexes were tested for use as agents active against (HIV). […]
(§7) The Graphic Results Summary Section: FIGS. 23-33 display a plot of Log 10 of the sample's concentration (as μg/mL or molar) against the measured test values expressed as a percentage of uninfected, untreated control values. The solid line connecting the diamond symbols depicts the percentage of surviving HIV-infected cells treated with your sample (at the indicated onccentration) relative to uninfected, untreated cotrols. This line expressed the in-vitro anti-HIV activity of your sample. The dashed line connecting the square symbols depicts the percentage of surviving uninfected cells treated with your sample relative to the same uninfected, untreated controls. This line expresses the in-vitro growth inhibitory properties of your sample. The viral cytophathic effect in this particular experiment is indicated by a dotted reference line. […] Values of this parameter less than 50% are considered acceptable in the current protocol. Reference lines at 0% and 50% are depicted as alternating dots and dashes.

For data set [4], the system named is CEM cell line (T4 lymphocytes). Briefly: Growth inhibition of uninfected CEM cells in the anti-HIV screen (XTT). The data set is classed as cell-based. The protocol:
as §1, §2, §3, §4, §5, §6, §7
(In general: Formazan colour is commonly taken as a measure of viable cells.)

Data set [5] has as its system pBR322 DNA. The data set can be described thus: Unwinding of supercoiled pBR322 DNA (topoisomerase I assay). To be noted: for EC50: read-out: Unwinding concentration, needed to unwind 11 of 22 supercoils, [DNA] 47 μM for phi complexes, 31.5 μM others, 60 min.
Where [6] appears, read: Table 12, dose 1 of 8, printed 9.14 × 10- μg/ml.
[7] abbreviates: Table 12, dose 2 of 8, printed 1.82 × 10+ μg/ml.
Where [8] appears, read: Table 12, dose 3 of 8, printed 3.65 × 10+ μg/ml.
Where [9] appears, read: Table 12, dose 4 of 8, printed 7.31 × 10+ μg/ml.
Where [10] appears, read: Table 12, dose 5 of 8, printed 1.46 × 10+ μg/ml.
Where [11] appears, read: Table 12, dose 6 of 8, printed 2.92 × 10+ μg/ml.
The mark [12] stands for this setting: Table 12, dose 7 of 8, printed 5.85 × 10+ μg/ml.
[13] abbreviates: Table 12, dose 8 of 8, printed 1.17 × 10+ μg/ml.

Values joined by “and” are separate entries in the source; they are usually repeats but may differ in a detail not shown here. Equal entries are not always repeated. “Also recorded” adds a separate entry of the source. Where two headings read alike, the source gives them in different places.

On to `O=[N+]([O-])c1cc2cccnc2c2ncccc12.O=[N+]([O-])c1cc2cccnc2c2ncccc12.O=[N+]([O-])c1cc2cccnc2c2ncccc12.[Ru+2]` [Ru(5-NO2phen)3^2+, [Ru(5-nitrophenanthroline)3)]Cl2], for which the “binding to DNA” value in data set [1] (absorption changes too small for Kb) was “bound very weakly”. Moreover, the Site size in data set [2] was 8-12 base pairs. In addition, the “binding affinity for DNA” value in data set [2] (in words) is “bind only poorly to DNA; also recorded: much lower than would be expected based upon their solvent accessible surfaces”.
On to `[Rh+3].c1ccc(-c2ccnc3c2ccc2c(-c4ccccc4)ccnc23)cc1.c1ccc(-c2ccnc3c2ccc2c(-c4ccccc4)ccnc23)cc1.c1ccc(-c2ccnc3c2ccc2c(-c4ccccc4)ccnc23)cc1` [Rh(DIP)3], for which the “Infected Culture Response(%)” value in data set [3] (setting [6]) is recorded as 12.4%; in data set [3] (setting [7]) it was 18.5%; in data set [3] (setting [8]), 64.7%; in data set [3] (setting [9]), 45.4%; in data set [3] (setting [10]) it was “-.3%”; in data set [3] (setting [11]) it was “-.9%”. For the same compound, the “Infected Culture Response(%)” value in data set [3] (setting [12]) is -1.8%; in data set [3] (setting [13]), -1.8%; in data set [3] (Tables 6-11, dose 3 of 8, 1.17 × 10- [sic] μg/ml) it was 8.0%. Further, the “activity in inhibiting the activity of HIV” value in data set [3] (in words) was “moderately active”. For the same compound, the “Uninfected Culture Response(%)” value in data set [4] (setting [6]) is 92.9%; in data set [4] (setting [7]), 91.8%; in data set [4] (setting [8]), 82.4%; in data set [4] (setting [9]), 55.2%; in data set [4] (setting [10]) it was “-.9%”; in data set [4] (setting [11]) it was -1.6%. Besides, the “Uninfected Culture Response(%)” value is “-.7%” in data set [4] (setting [12]); -1.5% in data set [4] (setting [13]); 110.1% and 100.3% and 133.6% and 105.1% in data set [4] (Tables 2-5, dose 1 of 8, 1.25 × 10- [sic] μg/ml); 113.1% and 98.9% and 131.0% and 82.1% in data set [4] (Tables 2-5, dose 2 of 8, 1.25 × 10- [sic] μg/ml); 106.0% and 89.3% and 108.6% and 65.1% in data set [4] (Tables 2-5, dose 3 of 8, 1.25 × 10- [sic] μg/ml); -6% and -1.6% and -6.8% and -2.1% in data set [4] (Tables 2-5, dose 8 of 8, 1.25 × 10+ [sic] μg/ml). Moreover, the “Uninfected Culture Response(%)” value was 101.9% and 100.5% and 96.6% and 96.5% and 100.2% and 101.1% in data set [4] (Tables 6-11, dose 1 of 8); 94.1% and 96.9% and 97.4% and 80.8% and 102.4% and 95.3% in data set [4] (Tables 6-11, dose 2 of 8); 96.8% and 102.2% and 101.8% and 86.9% and 115.3% and 110.6% in data set [4] (Tables 6-11, dose 3 of 8); 95.5% and 100.6% and 98.1% and 98.3% and 121.1% and 108.9% in data set [4] (Tables 6-11, dose 4 of 8); 97.9% and 104.2% and 101.3% and 88.4% and 113.8% and 93.7% in data set [4] (Tables 6-11, dose 5 of 8).
Take `N=C1C(=N)c2ccccc2-c2ccccc21.[Ru+2].c1ccc(-c2ccccn2)nc1.c1ccc(-c2ccccn2)nc1` [Ru(bpy)2 (phi)^2+]: the “hypochromism / absorption change on DNA addition” value in data set [1] was “greatest change in absorption”. Besides, the “Unwinding Angle” value in data set [5] (per molecule of bound complex) turned out to be 17 degrees. Besides, the EC50 in data set [5] was determined as 1100 nM. The “Km × 10) equilibrium dialysis (intrinsic binding constant Kb)” value in data set [2] (5 mM Tris, 50 mM NaCl, pH 7.5, standard deviation in parentheses) was 160.(17) × 10. This compound also showed a Site size in data set [2] of 4 base pairs.
Regarding `N=C1C(=N)c2ccccc2-c2ccccc21.N=C1C(=N)c2ccccc2-c2ccccc21.[Ru+2].c1ccc(-c2ccccn2)nc1` [Ru(phi)2 (bpy)^2+], the “hypochromism / absorption change on DNA addition” value in data set [1] is on record as “greatest change in absorption”. Further, in data set [5] (in words), the “unwinding of the helix” value is “lower concentration”. The EC50 in data set [5] came out at 600 nM. For the same compound, the Site size result in data set [2] was “cooperative”. In data set [2] (in words), the aggregation in solution entry is listed as “tend to agfregate in solution” and the “binding curve type (cooperativity)” value is on record as “cooperatiove binding”. The “binding affinity for DNA” value in data set [2] (in words, listed as Ru(phi) 2 bpy^2+) is recorded as “in the range of those for Ru(phen)2phi^2+”. Besides, in data set [2] (in words, listed as Ru(phi)2 bpy^2+), the “binding affinity for DNA” value is reported as “decreased affinity for DNA relative to Ru(bpy)2 ph^2+”.
